Patent publication US20120108431A1, “PLANT GROWTH REGULATOR ADDITIVE” (TAMINCO, NAAMLOZE VENNOOTSCHAP, priority 2009, published 2012)
Where “and” joins values, the source holds several entries; their conditions need not be identical. Equal entries are not always repeated.

What was measured:
Assay type in all cases: in vivo
Winter wheat varieties = Winter wheat varieties UK field trials, mean root weight per plant; conditions: for Mean Root Weight Per Plant (g), individual replicate: GS33, individual replicates, listed as B.; for Mean Root Weight Per Plant (g), Mean: GS33, mean of replicates; for Increase in Mean Root Weight Per Plant: GS33, vs A. Control
Excerpt: F. WINTER WHEAT VARIETIES—UK field trials. Formulations applied at mid-tillering and measured at third node stage (GS33).
(§1) Treatments compared: • A. Control vs • B. Chlormequat chloride (620 g/litre) applied at 1.0 litre in 250 litres water per hectare. • C. Anthranilic Acid (1 g/ha)+Acetaminophen (3 g/ha) in 250 litres water per hectare. • B.+C. Combination of B. and C. above, in 250 litres water per hectare.
Mean Root Weight Per Plant (g)—three winter wheat varieties: individual replicates and mean values. Mean root weight per plant (g) is a mean value from 10 median plants taken from a representative 20 plant sample per plot.

Winter barley = Winter barley Trial 5, field trial, mean of nine varieties
Excerpt: (§2) The applied concentration of chemical can vary widely depending on the water volume applied to plants as well as other factors such as plant age and size, and plant sensitivity to the product. Typical rates of AN-related compounds would be 1-10 g/ha (preferably and as used in these trials, 1 g per hectare was applied), typical rates of acetaminophen or its derivatives would be 1-10 g/ha (preferably and as used in these trials, 3 g per hectare was applied). Typical rates of the agrochemically acceptable additive of the present invention would be 1-10 g/ha (preferably and as used in these trials, less than 3 g per hectare was applied). The rate of other components such as spreaders and stickers can be 50-200 ml per ha.
E. WINTER BARLEY TRIAL 5—Field trial, sown 14 Oct. 2007. Mean of Nine Varieties—mean values from varieties Pearl, Flagon, Cassata, Wintmalt, Saffron, Suzuka, Marcorel, Sequel, Volume. Location: Great Dunmow, Essex, UK, 2008. Seed rate 400 seeds/sq metre. Formulations applied mid-tillering (GS23), and assessed at GS33 and at maturity.

Navy bean cv Primel = assay: Navy bean Trial 2, pot trial, foliar spray at V2-V3; conditions: navy bean
Soybean = Soybean Trial 1, pot trial, foliar spray at V2-V3; conditions: soybean
Winter wheat cv Limerick = assay: Winter wheat Trial 3, pot trial, sprayed at GS23
Experimental: The applied concentration of chemical can vary widely depending on the water volume applied to plants as well as other factors such as plant age and size, and plant sensitivity to the product. […] The rate of other components such as spreaders and stickers can be 50-200 ml per ha. C. […] Sprayed: 10 June, at GS23 (early-mid tillering). Plants were scored/assessed at GS33 on 12 July, with other measurements at crop maturity.

Winter wheat = Winter wheat Trial 4, field trial, mean of nine varieties
Excerpt: as §2
D. WINTER WHEAT TRIAL 4—Field trial, sown 18 Oct. 2007. Mean of Nine Varieties—mean values from varieties Solstice, Battalion, Duxford, Marksman, Gallant, Panorama, Qplus, Cassius, Alchemy. Location: Great Dunmow, Essex, UK, 2008. Seed rate 400 seeds/sq metre. Formulations applied mid-tillering (GS23), and assessed at GS33 and at maturity.

Winter barley varieties = Winter barley varieties UK field trials, mean root weight per plant; conditions: for Mean Root Weight Per Plant (g), individual replicate: GS33, individual replicates, listed as B.; for Mean Root Weight Per Plant (g), Mean: GS33, mean of replicates; for Increase in Mean Root Weight Per Plant: GS33, vs A. Control
Excerpt: G. WINTER BARLEY VARIETIES—UK field trials. Formulations applied at mid-tillering and measured at third node stage (GS33).
as §1
Mean Root Weight Per Plant (g)—three winter barley varieties: individual replicates and mean values.

[1] = score 0-9, 28 days after spraying
[2] = increase over the line given as 0 (untreated or growth regulator alone)
[3] = winter wheat pots, increase over the line given as 0 (untreated or growth regulator alone)

C[N+](C)(C)CCCl [CCC, Chlormequat chloride]
Mean Root Weight Per Plant (g), individual replicate (Winter wheat varieties; winter wheat variety Battalion): 4.1 g and 4.3 g and 4.4 g and 4.2 g
Mean Root Weight Per Plant (g), Mean (Winter wheat varieties; winter wheat variety Battalion): 4.25 g
Increase in Mean Root Weight Per Plant (Winter wheat varieties; winter wheat variety Battalion): +1.12 g
Mean Root Weight Per Plant (g), individual replicate (Winter wheat varieties; winter wheat variety Marksman): 4.3 g and 4.4 g (2×) and 4.5 g
Mean Root Weight Per Plant (g), Mean (Winter wheat varieties; winter wheat variety Marksman): 4.40 g
Increase in Mean Root Weight Per Plant (Winter wheat varieties; winter wheat variety Marksman): +1.10 g
Mean Root Weight Per Plant (g), individual replicate (Winter wheat varieties; winter wheat variety Solstice): 3.6 g (2×) and 3.7 g and 3.8 g
Mean Root Weight Per Plant (g), Mean (Winter wheat varieties; winter wheat variety Solstice): 3.68 g
Increase in Mean Root Weight Per Plant (Winter wheat varieties; winter wheat variety Solstice): +0.9 g
Final Ear Wt (10 ears) (Winter barley; CCC 1.0 l/ha): 22.8 g
Mean Root Diameter GS33 (cm) (Winter barley; GS33, CCC 1.0 l/ha): 2.05 cm
Mean Root Length GS33 (cm) (Winter barley; GS33, CCC 1.0 l/ha): 3.66 cm
Mean Root Weight GS33 (Winter barley; GS33, CCC 1.0 l/ha): 3.06 g
No of “large” Stems GS33 (Winter barley; GS33, CCC 1.0 l/ha): 4.23
Total Stem Number GS33 (Winter barley; GS33, CCC 1.0 l/ha): 6.01
Mean % Lodged Maturity (Winter barley; at maturity, CCC 1.0 l/ha): 26.3%
No of Large Pod Bearing Branches/Plant at Harvest (Navy bean cv Primel; at harvest): 1.4
Final Seed Yield at Harvest (g per pot) (Navy bean cv Primel; one plant per pot): 55.6 g per pot
Plant Biomass Score (0-9) at Harvest (Navy bean cv Primel; score 0-9): 5.4
Rooting (0-9) + 28 Days (Navy bean cv Primel; [1]): 7.4
Final Seed Yield + % (Navy bean cv Primel; [2]): 0%
No of Large Pod Bearing Branches/Plant + % (Navy bean cv Primel; [2]): 0%
Plant Biomass Score + % (Navy bean cv Primel; [2]): 0%
Rooting + % (Navy bean cv Primel; [2]): 0%
No of Large Pod Bearing Branches/Plant at Harvest (Soybean; at harvest): 1.0
Final Seed Yield at Harvest (g per pot) (Soybean; one plant per pot): 36.0 g per pot
Plant Biomass Score (0-9) at Harvest (Soybean; score 0-9): 6.0
Rooting (0-9) + 28 Days (Soybean; [1]): 4.4
Final Seed Yield + % (Soybean; [2]): 0%
No of Large Pod Bearing Branches/Plant + % (Soybean; [2]): 0%
Plant Biomass Score + % (Soybean; [2]): 0%
Rooting + % (Soybean; [2]): 0%
Total No of Shoots/Plant at GS33 (Winter wheat cv Limerick; winter wheat pots, GS33): 3.8
Total No of “Large” Shoots/Plant at GS33 (Winter wheat cv Limerick; winter wheat pots, GS33): 2.6
Rooting (0-9) + 28 Days (Winter wheat cv Limerick; winter wheat pots, score 0-9, 28 days after spraying): 6.0
Final Seed Yield + % (Winter wheat cv Limerick; [3]): 0%
Rooting + % (Winter wheat cv Limerick; [3]): 0%
Total No of Shoots/Plant + % (Winter wheat cv Limerick; [3]): 0%
Total No of “Large” Shoots/Plant + % (Winter wheat cv Limerick; [3]): 0%
Final Seed Yield at Harvest (g per pot) (Winter wheat cv Limerick; winter wheat, eight plants per pot): 36.4 g per pot
Final Ear Wt (10 ears) (Winter wheat; CCC 1.0 l/ha): 18.4 g
Mean Root Diameter GS33 (cm) (Winter wheat; GS33, CCC 1.0 l/ha): 2.51 cm
Mean Root Length GS33 (cm) (Winter wheat; GS33, CCC 1.0 l/ha): 2.40 cm
Mean Root Weight GS33 (Winter wheat; GS33, CCC 1.0 l/ha): 4.10 g
No of “large” Stems GS33 (Winter wheat; GS33, CCC 1.0 l/ha): 2.95
Total Stem Number GS33 (Winter wheat; GS33, CCC 1.0 l/ha): 4.40
Mean % Lodged Maturity (Winter wheat; at maturity, CCC 1.0 l/ha): 1.7%
Mean Root Weight Per Plant (g), individual replicate (Winter barley varieties; winter barley variety Flagon): 4.0 g (2×) and 3.9 g and 4.2 g
Mean Root Weight Per Plant (g), Mean (Winter barley varieties; winter barley variety Flagon): 4.03 g
Increase in Mean Root Weight Per Plant (Winter barley varieties; winter barley variety Flagon): +1.65 g
Mean Root Weight Per Plant (g), individual replicate (Winter barley varieties; winter barley variety Marcorel): 2.8 g (3×) and 2.9 g
Mean Root Weight Per Plant (g), Mean (Winter barley varieties; winter barley variety Marcorel): 2.83 g
Increase in Mean Root Weight Per Plant (Winter barley varieties; winter barley variety Marcorel): +0.85 g
Mean Root Weight Per Plant (g), individual replicate (Winter barley varieties; winter barley variety Suzuka): 4.0 g and 3.0 g (3×)
Mean Root Weight Per Plant (g), Mean (Winter barley varieties; winter barley variety Suzuka): 3.25 g
Increase in Mean Root Weight Per Plant (Winter barley varieties; winter barley variety Suzuka): +0.90 g
